We go through 15 compounds from patent publication US20260365682A1, “MODULATORS OF TNF-ALPHA ACTIVITY” (Forward Therapeutics, Inc., priority 2022, published 2026).

Read-outs that look alike come from different tables or passages of the source. Where only a bound is given, the exact number is not on record here.

This test deals with T1, TNF-α (Homo sapiens, UniProt P01375).
T1 construct: purchased R&D 210-TA-020/CF
As to the kind of experiment: TNF-α Induced HEK Blue Cellular Assay (secreted alkaline phosphatase expression, QUANTI-Blue). It is filed as cell-based. To be noted: HEK Blue TNFα reporter cells, TNF-α 100 μg/ml, 24 hrs at 37° C., inhibition of secreted alkaline phosphatase. An outline of the steps:
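Compound was serially diluted from […] to 0.5 nM final, then incubated with 10,000 HEK Blue TNFα reporter cells per well and […] TNF-α for 24 h at 37° C. SEAP output was read by QUANTI-Blue absorbance at 620 nm. Inhibition was background-corrected against DMSO controls with and without stimulation, and IC50 was fitted with a 4-parameter logistic equation.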

T1 sequence (P01375 77-233 limits assumed): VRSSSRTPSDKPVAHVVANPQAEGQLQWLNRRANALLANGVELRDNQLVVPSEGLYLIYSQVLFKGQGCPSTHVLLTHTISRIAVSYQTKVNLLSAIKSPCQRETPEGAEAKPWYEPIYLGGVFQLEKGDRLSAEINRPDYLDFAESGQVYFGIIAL

`[2H]C([2H])([2H])N1C(=O)c2cccc(OC(F)F)c2[C@H]2C[C@@H]1c1nc3ccc(C#CC4CCN(C(=O)C5(O)CC5)CC4)cc3n12` [Example 187, (7R,14R)-1-(difluoromethoxy)-11-((1-(1-hydroxycyclopropane-1-carbonyl)piperidin-4-yl)ethynyl)-6-(methyl-d3)-6,7-dihydro-7,14-methanobenzo[f]benzo[4,5]imidazo[1,2-a][1,4]diazocin-5(14H)-one]: the IC50 (read-out: IC50 value) was under 0.1 µM. The same measure, in the same setting: with `[2H]C([2H])([2H])N1C(=O)c2cccc(OC(F)F)c2[C@H]2C[C@@H]1c1nc3ccc(C#CC4(C(F)F)CC4)cc3n12` [Example 188, (7R,14R)-1-(difluoromethoxy)-11-((1-(difluoromethyl)cyclopropyl)ethynyl)-6-(methyl-d3)-6,7-dihydro-7,14-methanobenzo[f]benzo[4,5]imidazo[1,2-a][1,4]diazocin-5(14H)-one] the figure was 0.1 to 1 µM.

Regarding `[2H]C([2H])([2H])N1C(=O)c2cccc(OC(F)F)c2[C@H]2C[C@@H]1c1nc3ccc(C#CC4(C)CCN(C(=O)C5CC5)C4)cc3n12` (stereo partly drawn) [Example 189, (7R,14R)-11-((1-(cyclopropanecarbonyl)-3-methylpyrrolidin-3-yl)ethynyl)-1-(difluoromethoxy)-6-(methyl-d3)-6,7-dihydro-7,14-methanobenzo[f]benzo[4,5]imidazo[1,2-a][1,4]diazocin-5(14H)-one], the half-inhibitory concentration (IC50) (read-out: IC50 value) lay in the range of 10 to 30 µM. Regarding `[2H]C([2H])([2H])N1C(=O)c2cccc(OC(F)F)c2[C@H]2C[C@@H]1c1nc3ccc(C#CC4(C)CCN(C(=O)C(C)(C)C)C4)cc3n12` (stereo partly drawn) [Example 190, (7R,14R)-1-(difluoromethoxy)-6-(methyl-d3)-11-((3-methyl-1-pivaloylpyrrolidin-3-yl)ethynyl)-6,7-dihydro-7,14-methanobenzo[f]benzo[4,5]imidazo[1,2-a][1,4]diazocin-5(14H)-one], the IC50 (read-out: IC50 value) is 0.1 to 1 µM. `[2H]C([2H])([2H])N1C(=O)c2cccc(OC(F)F)c2[C@H]2C[C@@H]1c1nc3ccc(C#CC(C)(C)CO)cc3n12` [Example 191, (7R,14R)-1-(difluoromethoxy)-11-(4-hydroxy-3,3-dimethylbut-1-yn-1-yl)-6-(methyl-d3)-6,7-dihydro-7,14-methanobenzo[f]benzo[4,5]imidazo[1,2-a][1,4]diazocin-5(14H)-one]: the half-inhibitory concentration (IC50) (read-out: IC50 value) lay in the range of 10 to 30 µM. As to `[2H]C([2H])([2H])N1C(=O)c2cccc(OC(F)F)c2[C@H]2C[C@@H]1c1nc3ccc(C#CC4(C)CCN(C(=O)C(C)(C)O)C4)cc3n12` (stereo partly drawn) [Example 192, (7R,14R)-1-(difluoromethoxy)-11-((1-(2-hydroxy-2-methylpropanoyl)-3-methylpyrrolidin-3-yl)ethynyl)-6-(methyl-d3)-6,7-dihydro-7,14-methanobenzo[f]benzo[4,5]imidazo[1,2-a][1,4]diazocin-5(14H)-one], the half-inhibitory concentration (IC50) (read-out: IC50 value) was in the range of 10 to 30 µM. In the case of `[2H]C([2H])([2H])N1C(=O)c2cccc(OC(F)F)c2[C@H]2C[C@@H]1c1nc3ccc(C#CC4CN(C(=O)C(C)(C)C#N)C4)cc3n12` [Example 193, 3-(3-(((7R,14R)-1-(difluoromethoxy)-6-(methyl-d3)-5-oxo-5,6,7,14-tetrahydro-7,14-methanobenzo[f]benzo[4,5]imidazo[1,2-a][1,4]diazocin-11-yl)ethynyl)azetidin-1-yl)-2,2-dimethyl-3-oxopropanenitrile], the IC50 (read-out: IC50 value) lay in the range of 0.1 to 1 µM. Take `[2H]C([2H])([2H])N1C(=O)c2cccc(OC(F)F)c2[C@H]2C[C@@H]1c1nc3ccc(C#CC4CN(C(=O)C5CC5(F)F)C4)cc3n12` (stereo partly drawn) [Example 194, (7R,14R)-11-((1-(2,2-difluorocyclopropane-1-carbonyl)azetidin-3-yl)ethynyl)-1-(difluoromethoxy)-6-(methyl-d3)-6,7-dihydro-7,14-methanobenzo[f]benzo[4,5]imidazo[1,2-a][1,4]diazocin-5(14H)-one]: the IC50 (read-out: IC50 value) was 10 to 30 µM. Turning to `[2H]C([2H])([2H])N1C(=O)c2cccc(OC(F)F)c2[C@H]2C[C@@H]1c1nc3ccc(C#CC4CN(C(=O)C5(O)CC5)C4)cc3n12` [Example 195, (7R,14R)-1-(difluoromethoxy)-11-((1-(1-hydroxycyclopropane-1-carbonyl)azetidin-3-yl)ethynyl)-6-(methyl-d3)-6,7-dihydro-7,14-methanobenzo[f]benzo[4,5]imidazo[1,2-a][1,4]diazocin-5(14H)-one], under “read-out: IC50 value”, the IC50 is under 0.1 µM. For `[2H]C([2H])([2H])N1C(=O)c2cccc(OC(F)F)c2[C@H]2C[C@@H]1c1nc3ccc(C#CC4CC4(F)F)cc3n12` (stereo partly drawn) [Example 196, (7R,14R)-11-((2,2-difluorocyclopropyl)ethynyl)-1-(difluoromethoxy)-6-(methyl-d3)-6,7-dihydro-7,14-methanobenzo[f]benzo[4,5]imidazo[1,2-a][1,4]diazocin-5(14H)-one], the IC50 (read-out: IC50 value) was 0.1 to 1 µM.

Regarding `[2H]C([2H])([2H])N1C(=O)c2cccc(OC(F)F)c2[C@H]2C[C@@H]1c1nc3ccc(C#CC4CN(CC(C)(C)O)C4)cc3n12` [Example 197, (7R,14R)-1-(difluoromethoxy)-11-((1-(2-hydroxy-2-methylpropyl)azetidin-3-yl)ethynyl)-6-(methyl-d3)-6,7-dihydro-7,14-methanobenzo[f]benzo[4,5]imidazo[1,2-a][1,4]diazocin-5(14H)-one], the half-inhibitory concentration (IC50) (read-out: IC50 value) was 10 to 30 µM. Where the note is “IC50 value”, `[2H]C([2H])([2H])N1C(=O)c2cccc(OC(F)F)c2[C@H]2C[C@@H]1c1nc3ccc(C#CC4CN(CC(F)F)C4)cc3n12` [Example 198, (7R,14R)-11-((1-(2,2-difluoroethyl)azetidin-3-yl)ethynyl)-1-(difluoromethoxy)-6-(methyl-d3)-6,7-dihydro-7,14-methanobenzo[f]benzo[4,5]imidazo[1,2-a][1,4]diazocin-5(14H)-one] gave a half-maximal inhibitory concentration (IC50) of 10 to 30 µM. `[2H]C([2H])([2H])N1C(=O)c2cccc(OC(F)F)c2[C@H]2C[C@@H]1c1nc3ccc(C#CC4CCN(C(=O)C5CC5)C4)cc3n12` (stereo partly drawn) [Example 201, (7R,14R)-11-((1-(cyclopropanecarbonyl)pyrrolidin-3-yl)ethynyl)-1-(difluoromethoxy)-6-(methyl-d3)-6,7-dihydro-7,14-methanobenzo[f]benzo[4,5]imidazo[1,2-a][1,4]diazocin-5(14H)-one]: the IC50 (read-out: IC50 value) was 10 to 30 µM. In the case of `[2H]C([2H])([2H])N1C(=O)c2cccc(OC(F)F)c2[C@H]2C[C@@H]1c1nc3ccc(C#CC4CCN(C(=O)C(C)(C)O)C4)cc3n12` (stereo partly drawn) [Example 202, (7R,14R)-1-(difluoromethoxy)-11-((1-(2-hydroxy-2-methylpropanoyl)pyrrolidin-3-yl)ethynyl)-6-(methyl-d3)-6,7-dihydro-7,14-methanobenzo[f]benzo[4,5]imidazo[1,2-a][1,4]diazocin-5(14H)-one], the concentration for half-maximal inhibition (IC50) (read-out: IC50 value) is 0.1 to 1 µM. `[2H]C([2H])([2H])N1C(=O)c2cccc(OC(F)F)c2[C@H]2C[C@@H]1c1nc3ccc(C#CC4CCN(C(=O)C5(O)CC5)C4)cc3n12` (stereo partly drawn) [Example 203, (7R,14R)-1-(difluoromethoxy)-11-((1-(1-hydroxycyclopropane-1-carbonyl)pyrrolidin-3-yl)ethynyl)-6-(methyl-d3)-6,7-dihydro-7,14-methanobenzo[f]benzo[4,5]imidazo[1,2-a][1,4]diazocin-5(14H)-one]: the IC50 (read-out: IC50 value) is under 0.1 µM.
